Data reported in patent publication US20260297121A1, “MITHRAMYCIN (MTM) 2’ OXIMES” (University of Kentucky Research Foundation, priority 2023, published 2026).
Like-named read-outs stand apart in the source and are kept apart here.

Assays:
RDES = test: Cytotoxicity, resazurin fluorescence, RDES; format: cell-based; conditions: Table 6, 72 hr, EWS cells
ES4 = test: Cytotoxicity, resazurin fluorescence, ES4; format: cell-based; conditions: Table 6; 72 hr; EWS cells
H460 = test: Cytotoxicity, resazurin fluorescence, H460; format: cell-based; conditions: read-out: GI50 H460
ES3 = test: Cytotoxicity, resazurin fluorescence, ES3; format: cell-based; conditions: Table 6; 72 hr; EWS cells
DU145 = test: Cytotoxicity, resazurin fluorescence, DU145; format: cell-based; conditions: read-out: GI50 DU145
EWS cells = test: Cytotoxicity, average over Ewing (EWS) cell panel; format: cell-based; conditions: Table 6; 72 hr; average of EWS cells
Method: (§1) Exemplary compounds of the presently-disclosed subject matter were assessed for cytotoxicity (Table 5) in Ewing sarcoma (TC32) and non-Ewing (PC3 prostate cancer). […] Cells (1000-5000/well) were seeded in 96-well plates and allowed to attach and grow for 24 hr prior to adding compounds in half-log increments from 0.3 nM-10 μM. Cell viability was assessed after 72 hr continuous incubation with compounds using resazurin fluorescence. GI50 values were estimated using GraphPad Prism.

Hela = test: Cytotoxicity, resazurin fluorescence, Hela; format: cell-based; conditions: read-out: GI50 Hela
ES7 = test: Cytotoxicity, resazurin fluorescence, ES7; format: cell-based; conditions: Table 6, 72 hr, EWS cells
LNCap = test: Cytotoxicity, resazurin fluorescence, LNCap; format: cell-based; conditions: read-out: GI50 LNCap
HepG2 = test: Cytotoxicity, resazurin fluorescence, HepG2; format: cell-based; conditions: read-out: GI50 HepG2
SK.ES1 = test: Cytotoxicity, resazurin fluorescence, SK.ES1; format: cell-based; conditions: Table 6, 72 hr, EWS cells
BL1395 = test: Cytotoxicity, resazurin fluorescence, BL1395; format: cell-based; conditions: read-out: GI50 BL1395
TC71 = test: Cytotoxicity, resazurin fluorescence, TC71; format: cell-based; conditions: Table 6, 72 hr, EWS cells
PC3 [1] = test: Cytotoxicity, resazurin fluorescence, PC3; format: cell-based
How it was run: (§2)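 Cells were seeded, grown 24 hr, then exposed continuously for 72 hr to compounds in half-log steps from 0.3 nM-10 μM. Viability was read by resazurin fluorescence, and GI50 values were estimated from the concentration-response data.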

Non EWS cells = test: Cytotoxicity, average over non-Ewing cell panel; format: cell-based; conditions: read-out: GI50 Average, Non EWS cells
Method: as §1

TC32 = test: Cytotoxicity, resazurin fluorescence, TC32; format: cell-based
How it was run: as §2

[2] = cited from earlier work
A549 = test: Cytotoxicity, resazurin fluorescence, A549; format: cell-based; conditions: read-out: GI50 A549
EWS-FLI1 = conditions: screen of more than 50,000 natural products and synthetic compounds; cited from earlier work
5838 = test: Cytotoxicity, resazurin fluorescence, 5838; format: cell-based; conditions: Table 6; 72 hr; express EWS-ERG
ES8 = test: Cytotoxicity, resazurin fluorescence, ES8; format: cell-based; conditions: Table 6, 72 hr, EWS cells
PANC1 = test: Cytotoxicity, resazurin fluorescence, PANC1; format: cell-based; conditions: read-out: GI50 PANC1
A673 = test: Cytotoxicity, resazurin fluorescence, A673; format: cell-based; conditions: Table 6, 72 hr, EWS cells
HS68 = test: Cytotoxicity, 72 hr resazurin assay, HS68 fibroblast; format: cell-based
Source text: (§3) A fibroblast cell line (HS68 (FIG. 2E)) was used as a non-tumor control. The area under the concentration-efficacy curve (AUC; possible range of 0-20000) was used to estimate an alternate metric to GI50 for cases of shallow efficacy (e.g., the limited effect in HS68 cells).

RH41 = test: Cytotoxicity, 72 hr resazurin assay, RH41 alveolar rhabdomyosarcoma; format: cell-based
Source text: as §3

PC3 [3] = test: IC50 in PC3 cells; format: cell-based; conditions: Homo sapiens, PC-3, read-out: IC50 PC2, Table 2; head prints PC2, text PC3
rhabdomyosarcoma cells = test: Cytotoxicity, 72 hr resazurin assay, four rhabdomyosarcoma cell lines; format: cell-based; conditions: JR1, RD, RH30, RH41, read-out: GI50 range in the four cell lines tested
Source text: as §3

TC32 cells = test: Potency IC50 in TC32 cells and selectivity; format: cell-based; conditions: Homo sapiens, TC-32, Table 2, read-out: IC50 TC32
RD = test: Cytotoxicity, 72 hr resazurin assay, RD embryonal rhabdomyosarcoma; format: cell-based
Source text: as §3

JR1 = test: Cytotoxicity, 72 hr resazurin assay, JR1 embryonal rhabdomyosarcoma; format: cell-based
Source text: as §3

RH30 = test: Cytotoxicity, 72 hr resazurin assay, RH30 alveolar rhabdomyosarcoma; format: cell-based
Source text: as §3

log P = format: physicochemical; conditions: Table 2
[4] = area under concentration-efficacy curve, possible range 0-20000

mithramycin A [MTM, reference compound]
GI50 (RDES): 0.0106 µM | GI50 (ES4): 0.0073 µM | GI50 (H460; Table 6, 72 hr, non EWS cells): 0.0068 µM | GI50 (ES3): 0.0128 µM | GI50 (DU145; Table 6, 72 hr, non EWS cells): 0.0164 µM | GI50 (EWS cells): 0.0109 µM | GI50 (Hela; Table 6, 72 hr, non EWS cells): 0.0284 µM | GI50 (ES7): 0.01 µM | GI50 (LNCap; Table 6, 72 hr, non EWS cells): 0.0827 µM | GI50 (HepG2; Table 6, 72 hr, hepatic origin): 0.0284 µM | GI50 (SK.ES1): 0.0102 µM | GI50 (BL1395; Table 6, 72 hr, lymphocyte origin): 0.0099 µM | GI50 (TC71): 0.0103 µM | GI50 (PC3 [1]; Table 5, 72 hr, read-out: GI50 PC3): 0.011 µM | GI50 (PC3 [1]; Table 6, 72 hr, non EWS cells, read-out: GI50 PC3): 0.0113 µM | GI50 (Non EWS cells; Table 6, 72 hr, average of non EWS cells): 0.0289 µM | GI50 (TC32; Table 5, 72 hr, read-out: GI50 TC32): 0.01 µM | GI50 (TC32; Table 6, 72 hr, EWS cells, read-out: GI50 TC32): 0.0104 µM | clinical trial outcome ([2]; NCI clinical study, Ewing sarcoma patients): terminated early, due to toxicities | therapeutic index ([2]; clinical evaluation, 1960s and 70s): narrow therapeutic index | GI50 (A549; Table 6, 72 hr, non EWS cells): 0.054 µM | inhibition of EWS-FLI1 (EWS-FLI1): top inhibitor | GI50 5838: 0.0112 µM | GI50 (ES8): 0.0174 µM | GI50 (PANC1; Table 6, 72 hr, non EWS cells): 0.0223 µM | GI50 (A673): 0.0091 µM

COC(C(=NOCCNC(=O)c1[nH]c2ccc(Cl)cc2c1-c1c(C)noc1C)C(O)C(C)O)C1Cc2cc3cc(OC4CC(OC5CC(O)C(O)C(C)O5)C(O)C(C)O4)c(C)c(O)c3c(O)c2C(=O)C1OC1CC(OC2CC(OC3CC(C)(O)C(O)C(C)O3)C(O)C(C)O2)C(O)C(C)O1 (stereo not drawn) [YL-C110]
GI50 (RDES; RD-ES): 0.0133 µM | GI50 (ES4): 0.0101 µM | GI50 (H460; Homo sapiens, NCI-H460, 72 h): 0.0332 µM | GI50 (ES3): 0.0188 µM | GI50 (DU145; Homo sapiens, DU-145, 72 h): 0.0162 µM | GI50 (EWS cells): 0.0176 µM | GI50 (Hela; Homo sapiens, HeLa, 72 h): 0.102 µM | GI50 (ES7; Homo sapiens, ES7): 0.0136 µM | GI50 (HS68; Homo sapiens, Hs68, fibroblast, non-tumor control): 0.0336 µM | AUC HS68 (HS68; [4]): 16245 | GI50 (LNCap; Homo sapiens, LNCaP, 72 h): 0.0443 µM | GI50 (HepG2; Homo sapiens, HepG2, 72 h): 0.466 µM | GI50 (SK.ES1; Homo sapiens, SK-ES1): 0.0188 µM | GI50 (BL1395; Lymphocyte, 72 h): 0.0494 µM | GI50 (RH41; Homo sapiens, Rh41, alveolar): 0.0247 µM | AUC RH41 (RH41; [4]): 9477 | GI50 (TC71; Homo sapiens, TC-71): 0.0107 µM | IC50 (PC3 [3]): 0.0071 µM | GI50 (rhabdomyosarcoma cells): 0.015 to 0.025 µM | GI50 (PC3 [1]; Homo sapiens, PC-3, 72 h, read-out: GI50 PC3, Table 5): 0.027 µM | GI50 (PC3 [1]; Homo sapiens, PC-3, 72 h, read-out: GI50 PC3, Table 6, non EWS cells): 0.0268 µM | GI50 (Non EWS cells; 72 h): 0.0969 µM | IC50 (TC32 cells): 0.00218 µM | GI50 (TC32; Homo sapiens, TC-32, 72 h, read-out: GI50 TC32, Table 5): 0.014 µM | GI50 (TC32; Homo sapiens, TC-32, 72 h, read-out: GI50 TC32, Table 6, EWS cells): 0.0143 µM | GI50 (RD; Homo sapiens, RD, embryonal): 0.0225 µM | AUC RD (RD; [4]): 8367 | AUC JR1 (JR1; [4]): 8535 | GI50 (JR1; embryonal): 0.0149 µM | GI50 (A549; Homo sapiens, A549, 72 h): 0.0467 µM | GI50 5838: 0.0266 µM | GI50 (RH30; Rh30, alveolar): 0.021 µM | AUC RH30 (RH30; [4]): 7413 | GI50 (ES8; Homo sapiens, ES8): 0.0166 µM | GI50 (PANC1; Homo sapiens, PANC-1, 72 h): 0.0875 µM | GI50 (A673; Homo sapiens, A673): 0.0335 µM | logP (log P): 2.56
